≈ marks a conversion by molar mass, not a printed value. Read-outs that look alike come from different tables or passages of the source.
Legend:
E. coli = assay: Range of MIC for E. coli strains; conditions: Escherichia coli
Staph. = assay: Range of MIC for Staph. strains, including MRSA; conditions: Staphylococcus aureus, MRSA
[1] = 20 h, read-out: Range of MIC, E. coli (Mouse Serum)
[2] = read-out: Range of MIC, E. coli (Water)
[3] = read-out: Range of MIC, Staph (Mouse Serum)
[4] = read-out: Range of MIC, Staph (Water)

Structure (SMILES)	MIC (E. coli; [1]) [µg/mL]	MIC (E. coli; [2]) [µg/mL]	MIC (Staph.; [3]) [µg/mL]	MIC (Staph.; [4]) [µg/mL]
CCC(CC)C(=O)OCOC(=O)Nc1cc(N(C)C)c2c(c1O)C(=O)C1=C(O)[C@]3(O)C(=O)C(C(N)=O)=C(O)[C@@H](N(C)C)[C@@H]3C[C@@H]1C2 [Example 85, [({[(5aR,6aS,7S,10aS)-9-(aminocarbonyl)-4,7-bis(dimethylamino)-1,8,10a,11-tetrahydroxy-10,12-dioxo-5,5a,6,6a,7,10,10a,12-octahydrotetracen-2-yl]amino}carbonyl)oxy]methyl 2-ethylbutanoate]	1 to 2 (≈ 1.55 to 3.1 µM)	> 64	1 to 2 (≈ 1.55 to 3.1 µM)	4 to 16 (≈ 6.2 to 24.8 µM)
CN(C)c1cc(NC(=O)OCOC(=O)CC2CCCC2)c(O)c2c1C[C@H]1C[C@H]3[C@H](N(C)C)C(O)=C(C(N)=O)C(=O)[C@@]3(O)C(O)=C1C2=O [Example 86, [({[(5aR,6aS,7S,10aS)-9-(aminocarbonyl)-4,7-bis(dimethylamino)-1,8,10a,11-tetrahydroxy-10,12-dioxo-5,5a,6,6a,7,10,10a,12-octahydrotetracen-2-yl]amino}carbonyl)oxy]methyl cyclopentylacetate]	8 to 16 (≈ 12.2 to 24.4 µM)	> 64	2 to 8 (≈ 3.05 to 12.2 µM)	8 (≈ 12.2 µM)
CN(C)c1cc(NC(=O)CN(C(=O)OCOC(=O)c2cccnc2)C(C)(C)C)c(O)c2c1C[C@H]1C[C@H]3[C@H](N(C)C)C(O)=C(C(N)=O)C(=O)[C@@]3(O)C(O)=C1C2=O [Example 88, ({[(2-{[(5aR,6aS,7S,10aS)-9-(aminocarbonyl)-4,7-bis(dimethylamino)-1,8,10a,11-tetrahydroxy-10,12-dioxo-5,5a,6,6a,7,10,10a,12-octahydrotetracen-2-yl]amino}-2-oxoethyl)(tert-butyl)amino]carbonyl}oxy)methyl nicotinate]	0.5 to 2 (≈ 0.654 to 2.62 µM)	8 to 16 (≈ 10.5 to 20.9 µM)	1 to 4 (≈ 1.31 to 5.23 µM)	4 to 16 (≈ 5.23 to 20.9 µM)
CN(C)c1cc(NC(=O)CN(C(=O)OCOC(=O)c2ccncc2)C(C)(C)C)c(O)c2c1C[C@H]1C[C@H]3[C@H](N(C)C)C(O)=C(C(N)=O)C(=O)[C@@]3(O)C(O)=C1C2=O [Example 89, ({[(2-{[(5aR,6aS,7S,10aS)-9-(aminocarbonyl)-4,7-bis(dimethylamino)-1,8,10a,11-tetrahydroxy-10,12-dioxo-5,5a,6,6a,7,10,10a,12-octahydrotetracen-2-yl]amino}-2-oxoethyl)(tert-butyl)amino]carbonyl}oxy)methyl isonicotinate]	0.25 to 1 (≈ 0.327 to 1.31 µM)	4 to 8 (≈ 5.23 to 10.5 µM)	0.5 to 1 (≈ 0.654 to 1.31 µM)	1 to 4 (≈ 1.31 to 5.23 µM)
CN(C)c1cc(NC(=O)CN(C(=O)OCOC(=O)c2ccccc2C(F)(F)F)C(C)(C)C)c(O)c2c1C[C@H]1C[C@H]3[C@H](N(C)C)C(O)=C(C(N)=O)C(=O)[C@@]3(O)C(O)=C1C2=O [Example 92]	4 to 8 (≈ 4.81 to 9.62 µM)	> 64	4 (≈ 4.81 µM)	8 to 32 (≈ 9.62 to 38.5 µM)
CN(C)c1cc(NC(=O)CN(C(=O)OCOC(=O)c2ccccc2-c2ccccc2)C(C)(C)C)c(O)c2c1C[C@H]1C[C@H]3[C@H](N(C)C)C(O)=C(C(N)=O)C(=O)[C@@]3(O)C(O)=C1C2=O [Example 94, ({[(2-{[(5aR,6aS,7S,10aS)-9-(aminocarbonyl)-4,7-bis(dimethylamino)-1,8,10a,11-tetrahydroxy-10,12-dioxo-5,5a,6,6a,7,10,10a,12-octahydrotetracen-2-yl]amino}-2-oxoethyl)(tert-butyl)amino]carbonyl}oxy)methyl 1,1′-biphenyl-2-carboxylate]	32 to 64 (≈ 38.1 to 76.2 µM)	> 64	16 to 32 (≈ 19 to 38.1 µM)	> 64
Cc1cc(C)c(C(=O)OCOC(=O)N(CC(=O)Nc2cc(N(C)C)c3c(c2O)C(=O)C2=C(O)[C@]4(O)C(=O)C(C(N)=O)=C(O)[C@@H](N(C)C)[C@@H]4C[C@@H]2C3)C(C)(C)C)c(C)c1 [Example 95, ({[(2-{[(5aR,6aS,7S,10aS)-9-(aminocarbonyl)-4,7-bis(dimethylamino)-1,8,10a,11-tetrahydroxy-10,12-dioxo-5,5a,6,6a,7,10,10a,12-octahydrotetracen-2-yl]amino}-2-oxoethyl)(tert-butyl)amino]carbonyl}oxy)methyl 2,4,6-trimethylbenzoate]	> 64	> 64		> 64

The remaining lines, values ahead:

MIC (E. coli; [1]) [µg/mL]	MIC (E. coli; [2]) [µg/mL]	MIC (Staph.; [3]) [µg/mL]	MIC (Staph.; [4]) [µg/mL]	Structure (SMILES)
4 to 8 (≈ 4.68 to 9.37 µM)	> 64	1 to 4 (≈ 1.17 to 4.68 µM)	4 to 8 (≈ 4.68 to 9.37 µM)	COc1cc(C(=O)OCOC(=O)N(CC(=O)Nc2cc(N(C)C)c3c(c2O)C(=O)C2=C(O)[C@]4(O)C(=O)C(C(N)=O)=C(O)[C@@H](N(C)C)[C@@H]4C[C@@H]2C3)C(C)(C)C)cc(OC)c1OC [Example 97, ({[(2-{[(5aR,6aS,7S,10aS)-9-(aminocarbonyl)-4,7-bis(dimethylamino)-1,8,10a,11-tetrahydroxy-10,12-dioxo-5,5a,6,6a,7,10,10a,12-octahydrotetracen-2-yl]amino}-2-oxoethyl)(tert-butyl)amino]carbonyl}oxy)methyl 3,4,5-trimethoxybenzoate]
1 to 4 (≈ 1.21 to 4.86 µM)	> 64	0.5 to 2 (≈ 0.607 to 2.43 µM)	2 to 4 (≈ 2.43 to 4.86 µM)	COc1cc(OC)cc(C(=O)OCOC(=O)N(CC(=O)Nc2cc(N(C)C)c3c(c2O)C(=O)C2=C(O)[C@]4(O)C(=O)C(C(N)=O)=C(O)[C@@H](N(C)C)[C@@H]4C[C@@H]2C3)C(C)(C)C)c1 [Example 98, ({[(2-{[(5aR,6aS,7S,10aS)-9-(aminocarbonyl)-4,7-bis(dimethylamino)-1,8,10a,11-tetrahydroxy-10,12-dioxo-5,5a,6,6a,7,10,10a,12-octahydrotetracen-2-yl]amino}-2-oxoethyl)(tert-butyl)amino]carbonyl}oxy)methyl 3,5-dimethoxybenzoate]
1 to 2 (≈ 1.27 to 2.53 µM)	> 64	0.5 to 2 (≈ 0.633 to 2.53 µM)	2 to 4 (≈ 2.53 to 5.06 µM)	CN(C)c1cc(NC(=O)CN(C(=O)OCOC(=O)/C=C/c2ccccc2)C(C)(C)C)c(O)c2c1C[C@H]1C[C@H]3[C@H](N(C)C)C(O)=C(C(N)=O)C(=O)[C@@]3(O)C(O)=C1C2=O [Example 99, ({[(2-{[(5aR,6aS,7S,10aS)-9-(aminocarbonyl)-4,7-bis(dimethylamino)-1,8,10a,11-tetrahydroxy-10,12-dioxo-5,5a,6,6a,7,10,10a,12-octahydrotetracen-2-yl]amino}-2-oxoethyl)(tert-butyl)amino]carbonyl}oxy)methyl (2E)-3-phenylprop-2-enoate]
2 (≈ 2.45 µM)		0.5 to 1 (≈ 0.611 to 1.22 µM)	2 to 4 (≈ 2.45 to 4.89 µM)	Cc1c(C(=O)OCOC(=O)N(CC(=O)Nc2cc(N(C)C)c3c(c2O)C(=O)C2=C(O)[C@]4(O)C(=O)C(C(N)=O)=C(O)[C@@H](N(C)C)[C@@H]4C[C@@H]2C3)C(C)(C)C)oc2ccccc12 [Example 100, ({[(2-{[(5aR,6aS,7S,10aS)-9-(aminocarbonyl)-4,7-bis(dimethylamino)-1,8,10a,11-tetrahydroxy-10,12-dioxo-5,5a,6,6a,7,10,10a,12-octahydrotetracen-2-yl]amino}-2-oxoethyl)(tert-butyl)amino]carbonyl}oxy)methyl 3-methyl-1-benzofuran-2-carboxylate]

Reference: patent US20070049564A1 (Wyeth, priority 2005, published 2007)
